Consider 15 compounds from patent publication US5086165A, “Inhibitors of retroviral protease with a ketomethylene isosteric replaced amide bond” (Washington University, priority 1991, dated 1992).

“And” between values parts separate entries of the source, which are not always exact repeats. Equal values may be shown once. Read-outs that look alike come from different tables or passages of the source. Where a SMILES comes first, the peptide text is derived from it.

Assay [1] has as its target T1, retroviral protease (HIV-1) (Human immunodeficiency virus type 1 group M subtype B, UniProt P04585).
T1 construct: the retroviral protease, is contained within the polyprotein
Kind of assay: fluorometric assay for HIV protease (Toth and Marshall). The assay is classed as biochemical. The note with it: for IC50: where isomers were resolved, activities of both isomers are shown; for inhibition at 10 µM: read-out: percent at 10 μM, at 10 μM. How it is done: These peptide analogs were assayed in solution for their ability to inhibit retroviral protease (HIV-1) by a fluorometric assay for HIV protease as described by Toth and Marshall, Int. J. Peptide Protein Res. 36, 546-550 (1990), and in U.S. Pat. No. 5,011,910.
Table 2, below, sets forth the median inhibitory concentration, IC50, (μM) for the compounds thus tested. In those cases where the isomers were resolved, the activities of both isomers are shown.

Assay [2] deals with T2, HIV protease (Human immunodeficiency virus type 1 group M subtype B, UniProt P04585). The assay is classed as biochemical. As to conditions: for Relative Rate: relative cleavage rate: percent of standard substrate concentration cleaved in twenty minutes, control Ac-Thr-Ile-Met-Met-Gln-Arg-NH2 = 1.00. Further details: made in house; host or cells: chemical synthesis (gift of Dr. Stephen Kent, Caltech) or E. coli (gift of Dr. George Glover, Monsanto). On the procedure: HIV protease assay. The HIV protease assay was conducted using either synthetic HIV protease [Schneider and Kent, Cell 54, 363 (1988)] kindly supplied by Dr. Stephen Kent of Caltech, or cloned material expressed in E. coli supplied by Dr. George Glover of the Monsanto Company. […] Synthetic protease (1 mg/ml) was dissolved in a buffer (20 mM PIPES, 0.5% NP-40 detergent, 1 mM dithiothreitol), pH 6.5 . Substrates were also dissolved in the same buffer at 1 mg/ml concentration. 5 μl 1 of substrate and 5 μl of HIV protease were added to an Eppendorf tube which was centrifuged for one minute and incubated at 25° for the desired time. The reaction was stopped by the addition of 50 μl of 50% TFA. The sample was diluted with 200 μl of water and applied to a C4 HPLC column developed with 0.1% TFA for 5 min followed by a gradient of 0-50% acetonitrile in 50 min. For inhibitor studies, 5 μl of the protease solution was preincubated for 10 min with the 5 μl of inhibitor (dissolved in 10% DMSO and diluted to 1 mg/ml with buffer). Then 5 μl of test substrate, acetyl-Thr-Ile-Met-Met-Gln-Arg-NH2 was added in order to determine inhibition of cleavage. Reactions were stopped as above and cleavage rates were monitored by HPLC as above.
Substrate analogs were prepared in order to examine the relative hydrolysis rates of the various sites. […] Relative cleavage rates were measured by comparing the percent of a standard substrate concentration cleaved by the same concentration of enzyme in twenty minutes (linear portion of curve).

The target in assay [3] is T2, HIV protease. The note with it: cited from earlier work.

In assay [1], `CCCC[C@H](NC(=O)[C@@H](NC(=O)[C@@H](NC(=O)c1ccccc1N)[C@@H](C)O)[C@@H](C)CC)C(=O)CC(Cc1ccc2ccccc2c1)C(=O)N[C@@H](CCC(N)=O)C(=O)N[C@@H](CCCNC(=N)N)C(N)=O` (stereo partly drawn) [Abz-Thr-Ile-Nle-.PSI.(K)2-Nal-Gln-Arg-NH2] (HELM PEPTIDE1{[Nc1ccccc1C(=O)[*:2]].T.I.[CCCC[C@H](N[*:1])C(=O)CC(Cc1ccc2ccccc2c1)C(=O)[*:2]].Q.R.[am]}$$$$V2.0) yielded a 50% inhibitory concentration (IC50) of 4.8 nM. That is a single-digit nanomolar value.

With `CC[C@H](C)[C@H](NC(=O)[C@@H](NC(=O)c1ccccc1N)[C@@H](C)O)C(=O)N[C@@H](Cc1ccccc1)C(=O)CC(C)C(=O)N[C@@H](CCC(N)=O)C(=O)N[C@@H](CCCNC(=N)N)C(N)=O` (stereo partly drawn) [Abz-Thr-Ile-Phe.PSI.(K)Ala-Gln-Arg-NH2] (HELM PEPTIDE1{[Nc1ccccc1C(=O)[*:2]].T.I.[CC(CC(=O)[C@H](Cc1ccccc1)N[*:1])C(=O)[*:2]].Q.R.[am]}$$$$V2.0), in assay [1], the IC50 is 33 nM. This IC50 is about 6.9-fold higher than that of the compound before.

As for `CCCC[C@H](NC(=O)c1ccc2ccccc2n1)C(=O)CC(Cc1ccc2ccccc2c1)C(=O)N[C@@H](CCC(N)=O)C(=O)N[C@@H](CCCNC(=N)N)C(N)=O` (stereo partly drawn) [Qua--Nle.psi.(K)2-Nal--Gln--Arg--NH2, Qua-Nle.PSI.(K)2-Nal-Gln-Arg-NH2], the inhibition at 10 µM in assay [1] was 96%.

The compound `CCCC[C@H](NC(=O)[C@@H](NC(=O)c1ccc2ccccc2n1)[C@@H](C)CC)C(=O)CC(Cc1ccc2ccccc2c1)C(=O)N[C@@H](CCC(N)=O)C(=O)N[C@@H](CCCNC(=N)N)C(N)=O` (stereo partly drawn) [Qua-Ile-Nle.PSI.(K)2-Nal-Gln-Arg-NH2] came in with a half-inhibitory concentration (IC50) in assay [1] of 8.5 nM.

Turning to `CCCC[C@H](NC(=O)[C@@H](NC(=O)c1cnc2ccccc2n1)[C@@H](C)CC)C(=O)CC(Cc1ccc2ccccc2c1)C(=O)N[C@@H](CCC(N)=O)C(N)=O` (stereo partly drawn) [Qui--Ile--Nle.psi.(K)2-Nal--Gln--NH2, Qui-Ile-Nle.PSI.(K)2-Nal-Gln-NH2], the inhibition at 10 µM in assay [1] was 54%.

Consider `CCCC[C@H](NC(=O)c1cnc2ccccc2n1)C(=O)CC(Cc1ccc2ccccc2c1)C(=O)N[C@@H](CCC(N)=O)C(N)=O` (stereo partly drawn) [Qui--Nle.psi.(K)2-Nal--Gln--NH2, Qui-Nle.PSI.(K)2-Nal-Gln-NH2], for which the inhibition at 10 µM in assay [1] worked out at 7%.

With `CCCC[C@H](NC(=O)[C@@H](NC(=O)[C@@H](NC(=O)c1cnc2ccccc2n1)[C@@H](C)O)[C@@H](C)CC)C(=O)CC(Cc1ccc2ccccc2c1)C(=O)N[C@@H](CCC(N)=O)C(N)=O` (stereo partly drawn) [Qui-Thr-Ile-Nle.PSI.(K)2-Nal-Gln-NH2], in assay [1], the IC50 was 1110 nM and 8080 nM.

For the compound Aba--Thr--Ile--Nle--PnF--Gln--Arg--NH2, on HIV protease [2], the “Relative Rate” value is reported as 1.46.

Turning to Ac--Thr--Ile--Nle--Hle--Gln--Arg--NH2, the “Relative Rate” value on HIV protease [2] came out at 0.95.

For “Ac-QNYPIV-NH2 [Ac--Gln--Asn--Tyr--Pro--Ile--Val--NH2]”, the “Relative Rate” value on HIV protease [2] amounted to 0.04.

For the compound “Ac-TIMMQR-NH2 [Ac--Thr--Ile--Met--Met--Gln--Arg--NH2, Ac-Thr-Ile-Met-Met-Gln-Arg-NH2]”, on HIV protease [2] (as substrate of HIV protease), the Michaelis constant (Km) worked out at 1400 µM and the maximal velocity (Vmax) is 725 nmol/min/mg. Moreover, the “Relative Rate” value at HIV protease [2] is reported as 1.00.

Consider SQNY-PI, for which, at HIV protease [3], the “cleavage by HIV protease” value is “failed to be cleaved”.

As to SQNY-PIV, the “rate of cleavage relative to the octapeptide” value at HIV protease [3] (relative to VSQNYPIV) is 90%.

As for VSQNYPIV, on HIV protease [3] (gag p17/gag p24 cleavage site substrate), the Km was 2500 µM.

As to acetyl-QNY-PIV, the “cleavage by HIV protease” value on HIV protease [3] is given as “failed to be cleaved”.

The term IC50 denotes the concentration needed to halve the response being measured. Broadly, the Km is the substrate concentration at which the rate is half of its maximum. One may read the Vmax as the rate approached at saturating substrate.
